In one series the test system is cells. The experiment in a line: Titration to reveal potential toxic effects on cells. It counts as cell-based. The settings on record: titrated on cells. The method, then: Mifepristone, a glucocorticoid and progesterone receptor antagonist, was titrated to reveal potential toxic effects on cells and then used at the well tolerated concentration of 1 μM to counteract glucocorticoid- and progesterone-type compounds (dexamethasone, prednisolone, medroxyprogesterone, etc.). Protein growth factors (see list in Table 1) were dissolved according to the manufacturers' recommendations and used at final concentrations ranging from 0.02 to 1000 ng/ml.

For series [1], the system named is primary human dermal fibroblasts (HDF). The experiment in a line: Primary human dermal fibroblast (HDF) proliferation assay (2D), with or without wound exudate. The class given is cell-based. The settings on record: for HDF proliferation, PARP inhibitor alone: talazoparib 1 μM. How it is done:
(§1) Primary human dermal fibroblasts (HDF) were purchased from CELLnTEC, Bern. They were routinely grown in Dulbecco's modified Eagle's medium (DMEM) containing 10% FCS, 2 mM glutamine, and 100 U/ml penicillin/100 μg/ml streptomycin. Media, antibiotics, and glutamine were bought from Lonza. The cells were used at passage 5-15. Cells were trypsinized and seeded at 5000 cells/well in 200 μl into the inner wells of 96-well plates. The outer wells were loaded with sterile water. The cells were allowed to adhere overnight and then incubated for 72 hours at 37° C. under the following conditions: graded compound concentrations or 20 ng/ml PDGF-BB (Tonbo Biosciences) in the absence or presence of different dilutions of sterile-filtered WE in medium. For control samples, 200p1 medium was added instead of specific stimuli. Alternatively, the cells were seeded into 384-well plates at 2500 cells/well directly together with test compounds or growth factors and WE or medium in a total volume of […].
(§2) At the end of the 72-hour incubation period, supernatants were removed for the determination of IL-1ß, and the cells were fixed with 4% paraformaldehyde (Morphisto) for 15 minutes at room temperature and washed 3 times with PBS. A control plate was fixed after the overnight adherence of the cells (day 1) to determine the starting cell number.
Total cellular protein was determined as a measure of cell number by staining the fixed cells with sulforhodamine B (SRB, Sigma). A 0.4% SRB solution in 1% acetic acid was added to the wells for 30 minutes. The wells were then washed with 1 acetic acid until the wash solution remained colorless. After drying, the dye was eluted with 10 mM Tris.HCl, pH8.5, and absorbance was measured either at 550 or 492 nm for lower and higher cell densities, respectively. The average absorbance of the sample representing the day 1 starting cell number (for 96-well plates) was subtracted from the absorbance values of the WE-treated cells.
All experiments were carried out in triplicate for each sample and concentration, and means±standard deviation (SD) were used for the evaluation of the experiment. Results are expressed as percentage of control values for unstimulated cells.
Low molecular weight compounds (see list in Table 1) were dissolved in DMSO (Bioreagent for cell culture, Sigma) at 10 mM or 100 mM and diluted at least 1:1000 in medium for cellular assays (final DMSO concentration ≤0.1%).
(§3) Cells were incubated with compounds for 72 hours in proliferation assays and up to 8 days for FDM assay (refreshed after 4 days). When compounds were tested for their effect on WE stimulation, the incubation of cells with compounds was started and ended simultaneously with WE-incubation.

Another series deals with IL-1α. Kind of series: Fibroblast-macrophage coculture with wound exudate: IL-1α. To be noted: WE #78; veliparib 10 μM, talazoparib 0.1 μM. The class given is cell-based, human. The method, then: CD14^+ monocytes, isolated from PBMC of healthy donors by magnetic bead separation were incubated either alone or in the presence of primary human dermal fibroblasts (CelINTec) or fibroblast-derived matrices (FDM). FDM had been generated from primary human dermal fibroblasts by a 3-week incubation with the growth supplements vitamin C or insulin and EGF (vitamin C: 2-phospho-L-ascorbic acid trisodium salt, 100 μg/ml; human EGF, 5 ng/ml; human insulin, 5 μg/ml). Alternatively, fibroblast monolayer cultures can be used as well. After 4 days to a week to allow for macrophage differentiation in the presence or absence of M-CSF (25 ng/ml), the cultures were stimulated overnight with graded concentrations of test compounds in the absence or presence of various dilutions of sterile-filtered WE. IFN-g (50 ng/ml), LPS (100 ng/ml) and IL-4 (25 ng/ml) or combinations thereof served as controls for M1 and M2 macrophage induction. For negative control samples, medium was added instead of specific stimuli. WE were added to the culture medium for overnight stimulation at dilutions ranging from 1:25 to 1:100.
Supernatants were harvested and frozen for cytokine determination by ELISA, and cells were harvested and subjected to FACS analysis, gating on the monocyte population. Geometric means or mean fluorescence intensities (MFI) were used to quantify surface marker expression. […]

The next series has as its system IL-1ß. The experiment in a line: IL-1ß secretion by HDF in the presence of wound exudate (ELISA). To be noted: FIG. 22; WE #43 and #78 used with veliparib. The class given is cell-based, human. The method, then:
as §1, §2
IL-1ß levels were determined with a commercial ELISA kit. The amount of IL-1ß contained in the wound exudate added to the cells was subtracted from the total IL-ß in the supernatants in order to determine the cytokine secreted by the cells.
(In general: In an ELISA, binding on a coated surface is turned into a signal by an enzyme label.)

Series [2] relates to primary human dermal fibroblasts (HDF). The experiment in a line: Fibroblast-derived matrix (FDM) formation assay (3D), with or without wound exudate. It counts as cell-based. The settings on record: for fibroblast-derived matrix (FDM) formation: presence of WE #78 (FIG. 9). The method, then: HDF cells were seeded at 5000 cells/well on day −3 into 96-well tissue culture plates (1250 cells/well for 384-well plates), which had been pre-coated for 1 hour at 37° C. with 0.2% gelatin solution (Sigma). When the cells reached confluence (=day 0), a matrix promoting supplement (vitamin C: 2-phospho-L-ascorbic acid trisodium salt, 100 μg/ml; Sigma) was added together with test samples containing PDGF-BB, TGF-ß1 or graded concentrations of compounds −/+WE as described for the HDF proliferation assay. After 4 days, medium was replaced by fresh vitamin C- and stimulus- as well as compound-containing medium, maintaining the conditions initiated on day 0. TGF-ß1 and PDGF-BB were included as positive controls to promote FDM formation and cell growth, respectively. After a total incubation time of 8 days, FDM production was measured in fixed cultures via SRB staining and evaluated as described above. In some cases, the experiment was stopped and evaluated already on day 4.
Low molecular weight compounds (see list in Table 1) were dissolved in DMSO (Bioreagent for cell culture, Sigma) at 10 mM or 100 mM and diluted at least 1:1000 in medium for cellular assays (final DMSO concentration ≤0.1%). Compounds were typically tested in half-logarithmic dilution series (1:3.33), starting at 10 μM or 100 μM as the highest compound concentration.
as §3

Series [3] deals with alpha-smooth muscle actin (α-SMA). The experiment in a line: Immunolocalization of alpha-smooth muscle actin in 2D fibroblast culture (myofibroblast differentiation). It counts as cell-based, human. To be noted: TGF-ß 20 ng/ml. How it is done:
as §1, with “The cells were allowed to adhere overnight and then incubated for 72 hours at 37° C. under the following conditions: graded compound concentrations or 20 ng/ml PDGF-BB (Tonbo Biosciences) in the absence or presence of different dilutions of sterile-filtered WE in medium.” left out
After fixation with paraformaldehyde, the cells were incubated for 1 hour at room temperature with a monoclonal mouse-anti-human antibody against alpha-smooth muscle actin (α-SMA) from e-Bioscience, washed 3 times with PBS and developed with an Alexa Fluor-labelled donkey-anti-mouse IgG (Molecular Probes). The cells were washed 3 times with PBS and examined in a Zeiss ZEISS Observer.Z1 microscope, using the software AxioVision 48.

“Also recorded” adds a separate entry of the source.

In turn, `CC#C[C@]1(O)CC[C@H]2[C@@H]3CCC4=CC(=O)CCC4=C3[C@@H](c3ccc(N(C)C)cc3)C[C@@]21C` [mifepristone, Mifepristone] returned a well tolerated concentration in the series on cells of 1 µM. Besides, the “reversal of glucocorticoid effects on HDF proliferation” value in series [1] (mifepristone as antagonist, WE present) is reported as “reversible”.
Consider `Cn1ncnc1[C@H]1c2n[nH]c(=O)c3cc(F)cc(c23)N[C@@H]1c1ccc(F)cc1` [talazoparib], for which the “IL-1α induced by wound exudate” value in the series on IL-1α is given as “reduced”. In the series on IL-1ß, the “IL-1ß secretion induced by wound exudate” value is listed as “reducing IL-1ß secretion”. In addition, the figures for the “fibroblast-derived matrix (FDM) formation” value in series [2] and in series [2] (listed as Talazoparib) were “strong positive effect” and “most active of the PARP inhibitors tested in 3D culture”, respectively. In series [2] (presence of wound exudate, WE not specified (FIG. 6: microscopy)), the “fibroblast-derived matrix (FDM/ECM) formation” value is recorded as ““cleaned up” WE-induced fibroblast matrix inhibition”. Further, in series [1] (FIG. 22, WE #43 and #78 used with veliparib), the “cell proliferation under wound exudate-induced inhibition” value is on record as “enhanced cell proliferation”. The “HDF proliferation, PARP inhibitor plus PDGF” value is given as “even further enhanced by the addition of PDGF” in series [1] (PARP inhibitor dose series + PDGF 20 ng/ml, WE #78 (FIG. 18)) and “additively or synergistically enhanced by PDGF” in series [1] (veliparib 10 μM, talazoparib 1 μM + PDGF 20 ng/ml, WE #78 (FIG. 17B)). In addition, the “fibroblast (HDF) proliferation” value in series [1] (presence of WE #43) was “strongly beneficial effects”; in series [1] (presence of WE #78 (diabetic patient)), “strongly beneficial effects; also recorded: dose-dependent increase of HDF proliferation”. For the same compound, the HDF proliferation result in series [1] (talazoparib 0.3 μM, WE #78 (FIG. 19)) was “rescues the cells from the inhibitory effect of the WE; also recorded: rescued the cells from the inhibitory effect of the wound exudate”. Besides, the “HDF proliferation, PARP inhibitor alone” value in series [1] (veliparib 10 μM, WE #78 (FIG. 17B)) was “induce proliferation”; in series [1] (veliparib 10 μM, absence of WE (FIG. 17A)) it was “no or even an inhibitory effect on fibroblasts on their own”.
Turning to “TGF-ß: Transforming growth factor beta, protein growth factor”, the “staining for α-SMA” value in series [3] (absence of WE, veliparib 10 μM) was “increased the staining for the myofibroblast marker alpha-smooth muscle actin (α-SMA)”; in series [3] (presence of WE #78) it was “does not induce α-SMA on its own; also recorded: did not induce α-SMA on its own”.
